Active and inactive are the calls of the source. The calls are words filed in the database; no cut-off is given here.
Legend:
[1] = molecular target: Signal transducer and activator of transcription 3 (Homo sapiens) (UniProt P40763); test: Inhibition of STAT3 in human HCT 116 cells co-transfected with pSTAT3-TA-Luc at 2 uM after 24 hrs by dual luciferase assay; type: cell-based
MDA-MB-231 [2] = test: Inhibition of human MDA-MB-231 cell proliferation at highest concentration after 48 hrs by WST-1 assay; type: functional, cell-based
HCT-116 [3] = test: Induction of apoptosis in human HCT116 cells assessed as increase in cleaved PARP level at 10 uM by western blot analysis; type: functional, cell-based
SW-620 [4] = test: Inhibition of human SW620 cell proliferation at highest concentration after 48 hrs by WST-1 assay; type: functional, cell-based
HCT-116 [5] = test: Induction of apoptosis in human HCT116 cells assessed as increase in cleaved caspase-3 level at 10 uM by western blot analysis; type: functional, cell-based
SW-620 [6] = test: Growth inhibition of human SW620 cells assessed as cell proliferation at highest concentration after 24 hrs by WST-1 assay; type: functional
[7] = molecular target: Signal transducer and activator of transcription 3 (Homo sapiens) (UniProt P40763); test: Inhibition of STAT3 in human HCT 116 cells co-transfected with pSTAT3-TA-Luc after 24 hrs by dual luciferase assay; type: cell-based
MDA-MB-231 [8] = test: Growth inhibition of human MDA-MB-231 cells assessed as cell proliferation at highest concentration after 24 hrs by WST-1 assay; type: functional
HCT-116 [9] = test: Induction of apoptosis in human HCT116 cells assessed as rounded and floated morphology at 2.5 to 50 uM; type: functional, cell-based
MDA-MB-468 [10] = test: Growth inhibition of human MDA-MB-468 cells assessed as cell proliferation at highest concentration after 24 hrs by WST-1 assay; type: functional
HCT-116 [11] = test: Inhibition of human HCT116 cell proliferation at highest concentration after 48 hrs by WST-1 assay; type: functional, cell-based
HCT-116 [12] = test: Growth inhibition of human HCT116 cells assessed as cell proliferation at highest concentration after 24 hrs by WST-1 assay; type: functional
MDA-MB-468 [13] = test: Inhibition of human MDA-MB-468 cell proliferation at highest concentration after 48 hrs by WST-1 assay; type: functional, cell-based

Signal transducer and activator of transcription 3 (Homo sapiens), sequence (P40763 whole entry): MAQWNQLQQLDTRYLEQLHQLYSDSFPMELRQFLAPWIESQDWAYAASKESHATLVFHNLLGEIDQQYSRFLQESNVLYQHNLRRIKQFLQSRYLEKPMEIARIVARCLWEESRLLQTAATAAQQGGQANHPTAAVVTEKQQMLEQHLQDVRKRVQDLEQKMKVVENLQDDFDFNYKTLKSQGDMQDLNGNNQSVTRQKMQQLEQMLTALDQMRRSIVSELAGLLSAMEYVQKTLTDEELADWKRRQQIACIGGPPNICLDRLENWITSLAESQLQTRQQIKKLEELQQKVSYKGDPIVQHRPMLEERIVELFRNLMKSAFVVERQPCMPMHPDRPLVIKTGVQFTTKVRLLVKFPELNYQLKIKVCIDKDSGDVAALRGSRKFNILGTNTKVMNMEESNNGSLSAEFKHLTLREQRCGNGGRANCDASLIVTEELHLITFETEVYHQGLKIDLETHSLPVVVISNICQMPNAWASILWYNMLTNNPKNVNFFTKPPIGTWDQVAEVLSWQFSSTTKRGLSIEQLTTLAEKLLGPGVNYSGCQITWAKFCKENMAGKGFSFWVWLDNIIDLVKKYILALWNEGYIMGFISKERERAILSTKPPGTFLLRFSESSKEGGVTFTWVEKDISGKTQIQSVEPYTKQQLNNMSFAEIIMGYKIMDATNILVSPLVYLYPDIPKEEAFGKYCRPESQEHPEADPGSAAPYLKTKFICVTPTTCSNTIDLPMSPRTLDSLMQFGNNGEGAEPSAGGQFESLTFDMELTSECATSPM

Row | SMILES | inhibition [1] [%] | further results
1 | CN(C(=O)Nc1nonc1-c1ccc(OCc2ccccc2)cc1)c1ccc(C(F)(F)F)cc1 | 21 | –
2 | O=C(Nc1nonc1-c1ccc(Cl)cc1)c1ccc(C(F)(F)F)cc1 | -7 | –
3 | O=S(=O)(Nc1nonc1-c1ccc(Cl)cc1)c1ccc(C(F)(F)F)cc1 | -3 | –
4 | Cc1nonc1NS(=O)(=O)Cc1ccccc1 | 6 | –
5 | CN(C(=O)N(C)c1nonc1-c1ccc(Cl)cc1)c1ccc(C(F)(F)F)cc1 | 8 | –
6 | COC(=O)c1nonc1NC(=O)Cc1ccccc1 | 9 | –
7 | COC(=O)c1nonc1NS(=O)(=O)Cc1ccccc1 | 7 | –
8 | CN(C(=O)Nc1nonc1-c1ccc(O)cc1)c1ccc(C(F)(F)F)cc1 | 51 | –
9 | CC(=O)Oc1ccc(-c2nonc2NC(=O)N(C)c2ccc(C(F)(F)F)cc2)cc1 | 32 | –
10 | O=C(Cc1ccccc1)Nc1nonc1CO | 14 | –
11 | CC(=O)Oc1ccc(-c2nonc2N(C)C(=O)N(C)c2ccc(C(F)(F)F)cc2)cc1 | 26 | –
12 | O=S(=O)(Cc1ccccc1)Nc1nonc1CO | -2 | –

The next lines start with results.

Row | inhibition [1] [%] | SMILES | further results
13 | 11 | O=C(Cc1ccccc1)Nc1nonc1-c1ccccc1 | –
14 | 25 | CN(C(=O)Nc1nonc1-c1ccc(Cl)cc1)c1ccccc1 | –
15 | 45 | O=C(Nc1ccc(C(F)(F)F)cc1)Nc1nonc1-c1ccc(Cl)cc1 | inhibition (MDA-MB-231 [2]): Active; Activity (HCT-116 [3]): Active; inhibition (SW-620 [4]): Active; Activity (HCT-116 [5]): Active; growth inhibition (GI) (SW-620 [6]): 50%; inhibition [7]: Dose-dependent effect; growth inhibition (GI) (MDA-MB-231 [8]): 50%; Activity (HCT-116 [9]): Active; growth inhibition (GI) (MDA-MB-468 [10]): 50%; inhibition (HCT-116 [11]): Active; growth inhibition (GI) (HCT-116 [12]): 50%; inhibition (MDA-MB-468 [13]): Active
16 | 11 | O=C(NCc1ccccc1)Nc1nonc1-c1ccccc1 | –
17 | 36 | O=C(Nc1ccccc1)Nc1nonc1-c1ccccc1 | –
18 | 2 | Cc1nonc1NC(=O)Nc1ccccc1 | –
19 | 6 | Cc1nonc1NC(=O)Cc1ccccc1 | –
20 | 24 | O=C(Nc1ccc(C(F)(F)F)cc1)Nc1nonc1-c1ccc(O)cc1 | –

Reference: ChEMBL document CHEMBL3217598, “Synthesis, modeling, and crystallographic study of 3,4-disubstituted-1,2,5-oxadiazoles and evaluation of their ability to decrease STAT3 activity” (Medchemcomm, 2010)
